What is called aqueous solubility is the dissolved amount per volume that the medium holds. Lower therefore signals a poorly soluble substance.

The text below walks through data of the Biogen ADME set (Fang et al. 2023).

In brackets after ≈: the same amount, converted by molar mass.

The conditions of this data set: for aqueous solubility: pH 6.8.

The compound `CN(Cc1cnccn1)Cc1nc(N)c2ccccc2n1` yielded an intrinsic clearance, human liver microsomes of 0.901 L/h/kg and an intrinsic clearance, rat liver microsomes of 27.5 L/h/kg.
`Cc1noc(Cc2ccc(C)c(O)c2)n1` registered an intrinsic clearance, human liver microsomes of 0.644 L/h/kg and an intrinsic clearance, rat liver microsomes of 3.13 L/h/kg.
For the compound `Cc1ccc(-c2nc(C(=O)N3CCc4ccccc4C3)cs2)o1`, the MDR1-MDCK efflux ratio came out at 0.421; the intrinsic clearance, human liver microsomes stood at 11.2 L/h/kg; the intrinsic clearance, rat liver microsomes amounted to 216 L/h/kg; the aqueous solubility was 0.036 mg/mL (≈ 111 µM).
The compound `Cc1cc(OCc2ccnc(Cl)c2)nnc1C` had an intrinsic clearance, human liver microsomes of at most 0.284 L/h/kg and an intrinsic clearance, rat liver microsomes of 3.09 L/h/kg.
On to `CC(C)Cc1ccccc1CNCc1ccc2[nH]cnc2c1`, for which the MDR1-MDCK efflux ratio is 7.25; the intrinsic clearance, human liver microsomes worked out at 3.35 L/h/kg; the intrinsic clearance, rat liver microsomes was 45.9 L/h/kg.
Turning to `O=C(Cn1c(=O)c2cccn2c2ccccc21)NCCCN1CCCC1`, the MDR1-MDCK efflux ratio amounted to 78.1; the intrinsic clearance, human liver microsomes is at most 0.284 L/h/kg; the intrinsic clearance, rat liver microsomes was determined as 38.1 L/h/kg; the aqueous solubility came to 0.0523 mg/mL (≈ 148 µM).
For `CCCOc1c2c(nc3cc(C4CCOCC4)nn13)CCC2`, the MDR1-MDCK efflux ratio turned out to be 22.3; the intrinsic clearance, human liver microsomes was at most 0.284 L/h/kg; the intrinsic clearance, rat liver microsomes came out at 0.966 L/h/kg.
Taken in the same sequence, the figures for `Cc1cc(Nc2ccc(F)cn2)cc(C2CCN(C(=O)Cn3nc(C)ccc3=O)C2)n1` (configuration not stated) were 29.9, 1.18 L/h/kg and 5.4 L/h/kg.
As to `CCC(CC)NC(=O)c1ccc(C#N)c(C)n1`, the intrinsic clearance, human liver microsomes was determined as 0.37 L/h/kg; the intrinsic clearance, rat liver microsomes came out at 3 L/h/kg; the aqueous solubility came to 0.0529 mg/mL (≈ 229 µM).
As to `COC(=O)Nc1nc2ccccc2[nH]1`, the aqueous solubility came out at 0.00805 mg/mL (≈ 42.1 µM).
With `C=CC(=O)N1CCC[C@H](n2c(=O)n(-c3ccc(Oc4ccccc4)cc3)c3c(N)ncnc32)C1`, the MDR1-MDCK efflux ratio is 5.79; the fraction unbound, human plasma came out at 0.0963; the fraction unbound, rat plasma was found to be 0.0189; the intrinsic clearance, human liver microsomes was 9.95 L/h/kg. Further, the intrinsic clearance, rat liver microsomes was determined as 31 L/h/kg and the aqueous solubility stood at 0.0564 mg/mL (≈ 123 µM).
For `Cc1cccc(CNc2cccc3c2CCN(S(C)(=O)=O)C3)c1`, the MDR1-MDCK efflux ratio came to 0.65 and the aqueous solubility worked out at 0.00035 mg/mL (≈ 1.06 µM).
Consider `Cc1cc(-c2cccc3ccnn23)nc(N2CCCC2)n1`, for which the intrinsic clearance, human liver microsomes was found to be 7.34 L/h/kg and the intrinsic clearance, rat liver microsomes was 95.9 L/h/kg.
As for `Cc1cccc(NCCc2cc(F)cc3c2OCOC3)n1`, the MDR1-MDCK efflux ratio came out at 0.374; the intrinsic clearance, human liver microsomes amounted to 23.8 L/h/kg; the intrinsic clearance, rat liver microsomes turned out to be 311 L/h/kg.
On to `Cn1ccc2c(C(=O)Nc3ncn(Cc4cccnc4)n3)cccc21`, for which the MDR1-MDCK efflux ratio is 54.9; the intrinsic clearance, human liver microsomes was at most 0.284 L/h/kg; the intrinsic clearance, rat liver microsomes was 1.86 L/h/kg; the aqueous solubility stood at 0.0425 mg/mL (≈ 128 µM).
Taken in the same sequence, the figures for `CC1(C)CN(C(=O)c2cncc(Br)c2)CCO1` were 0.783, at most 0.284 L/h/kg, at most 0.64 L/h/kg and 0.0833 mg/mL (≈ 278 µM).
Regarding `Cc1ccc(-c2cnc3ccccc3n2)cc1N`, the intrinsic clearance, human liver microsomes was found to be 15.4 L/h/kg and the intrinsic clearance, rat liver microsomes was 12.2 L/h/kg.
Consider `CN(C)C(C)(C)CNc1ncnc2ccccc12`, for which the MDR1-MDCK efflux ratio worked out at 2.86; the intrinsic clearance, human liver microsomes is at most 0.284 L/h/kg; the intrinsic clearance, rat liver microsomes was determined as 17.6 L/h/kg; the aqueous solubility is 0.0391 mg/mL (≈ 160 µM).
`Cc1ccc2cc(C(=O)N(C)CCC#N)[nH]c2c1` showed an intrinsic clearance, human liver microsomes of 3.71 L/h/kg; an intrinsic clearance, rat liver microsomes of 7.34 L/h/kg; an aqueous solubility of 0.004 mg/mL (≈ 16.6 µM).
Regarding `CCCc1ccc(-c2cccc(C(=O)N3CCN(CC(N)=O)CC3)c2)cc1`, the MDR1-MDCK efflux ratio was 8.27; the intrinsic clearance, human liver microsomes was 0.755 L/h/kg; the intrinsic clearance, rat liver microsomes is 42.4 L/h/kg.
In turn, `CCN1CCc2c(sc(NC(=O)CS(=O)(=O)c3ccccc3)c2-c2nc3ccccc3s2)C1` showed an intrinsic clearance, human liver microsomes of 4.3 L/h/kg and an intrinsic clearance, rat liver microsomes of 26.1 L/h/kg.
For the compound `CN(Cc1cnn(C)c1)C(=O)c1ccccc1-c1ccccc1C#N`, the MDR1-MDCK efflux ratio was 19.3; the intrinsic clearance, human liver microsomes came out at 3.84 L/h/kg; the intrinsic clearance, rat liver microsomes was at most 0.64 L/h/kg; the aqueous solubility came to 0.0404 mg/mL (≈ 122 µM).
Take `Cc1nc(-c2cccc(-c3ccc(C(=O)NC[C@@H]4CCCN4)cc3)c2)no1`: the MDR1-MDCK efflux ratio was determined as 113; the intrinsic clearance, human liver microsomes was at most 0.284 L/h/kg; the intrinsic clearance, rat liver microsomes came to 1.81 L/h/kg.
`COc1ccccc1N1CCN(CCNC(=O)c2ccc(F)cc2)CC1` gave an intrinsic clearance, human liver microsomes of 1.32 L/h/kg and an intrinsic clearance, rat liver microsomes of 21.4 L/h/kg.
Regarding `CN(C)c1ccc(Cn2c(=O)[nH]c3ccccc3c2=O)cn1`, the MDR1-MDCK efflux ratio worked out at 4.71; the intrinsic clearance, human liver microsomes turned out to be 0.548 L/h/kg; the intrinsic clearance, rat liver microsomes was 22.1 L/h/kg; the aqueous solubility stood at 0.0026 mg/mL (≈ 8.77 µM).
Regarding `N#Cc1nncn1CC(=O)Nc1ccc2ccccc2c1`, the aqueous solubility was 0.0228 mg/mL (≈ 82.1 µM).
For `CC(=O)NCc1cc2n(n1)CCN(C1Cc3ccccc3C1)C2`, the MDR1-MDCK efflux ratio amounted to 1.12; the intrinsic clearance, human liver microsomes was at most 0.284 L/h/kg; the intrinsic clearance, rat liver microsomes is at most 0.64 L/h/kg.
Take `Cc1nc(N2CCn3ccnc3C2)c2cnn(C)c2n1`: the MDR1-MDCK efflux ratio was found to be 3.63; the intrinsic clearance, human liver microsomes was found to be 0.63 L/h/kg; the intrinsic clearance, rat liver microsomes was at most 0.64 L/h/kg; the aqueous solubility was found to be 0.0329 mg/mL (≈ 122 µM).
With `COc1nn(C)cc1C(=O)Nc1cccc(-c2cnc3n2CCC3)c1`, the MDR1-MDCK efflux ratio is 9.53; the fraction unbound, human plasma came to 0.0736; the fraction unbound, rat plasma stood at 0.0485; the intrinsic clearance, human liver microsomes was 0.631 L/h/kg. Further, the intrinsic clearance, rat liver microsomes worked out at 4.24 L/h/kg and the aqueous solubility amounted to 0.0362 mg/mL (≈ 107 µM).
Consider `Cc1cc(N(CCO)CCCO)ncc1Br`, for which the MDR1-MDCK efflux ratio stood at 0.766; the intrinsic clearance, human liver microsomes amounted to 0.746 L/h/kg; the intrinsic clearance, rat liver microsomes amounted to 28.7 L/h/kg.
For the compound `COc1ncnc(C)c1-c1cccc(OC(C)C)c1`, the MDR1-MDCK efflux ratio turned out to be 0.634; the intrinsic clearance, human liver microsomes came to 3.81 L/h/kg; the intrinsic clearance, rat liver microsomes is 63.7 L/h/kg.
`CCCCN(C)C(=O)Nc1cc(C)ccn1`: the MDR1-MDCK efflux ratio stood at 0.56; the intrinsic clearance, human liver microsomes worked out at 2.48 L/h/kg; the intrinsic clearance, rat liver microsomes came out at 13.5 L/h/kg; the aqueous solubility worked out at 0.0249 mg/mL (≈ 113 µM).
On to `Cc1cnn(Cc2cc(F)ccc2F)c1N`, for which the intrinsic clearance, human liver microsomes came out at 0.402 L/h/kg; the intrinsic clearance, rat liver microsomes is at most 0.64 L/h/kg; the aqueous solubility is 0.0412 mg/mL (≈ 185 µM).
Turning to `CN1CCC(NS(=O)(=O)C2CN(C(=O)c3cccc(Cl)c3)C2)CC1`, the MDR1-MDCK efflux ratio came out at 28.4; the intrinsic clearance, human liver microsomes amounted to 0.297 L/h/kg; the intrinsic clearance, rat liver microsomes is at most 0.64 L/h/kg; the aqueous solubility was 0.0568 mg/mL (≈ 153 µM).
Turning to `Cc1ncsc1C(=O)N1CCCCC1c1nc(N)ncc1-c1cccc(C(F)(F)F)c1` (configuration not stated), the MDR1-MDCK efflux ratio was 9.17; the fraction unbound, human plasma is 0.0412; the fraction unbound, rat plasma is 0.0729; the intrinsic clearance, human liver microsomes came to 22.4 L/h/kg. This compound also returned an intrinsic clearance, rat liver microsomes of 34.7 L/h/kg and an aqueous solubility of 0.0143 mg/mL (≈ 32 µM).
Take `O=C(CC1CCN(c2ncc(Cl)cn2)CC1)N1CCOCC1`: the MDR1-MDCK efflux ratio came out at 0.764; the intrinsic clearance, human liver microsomes is at most 0.284 L/h/kg; the intrinsic clearance, rat liver microsomes turned out to be 2.81 L/h/kg; the aqueous solubility came out at 0.0512 mg/mL (≈ 158 µM).
For `O=C(NO)c1cnc(NC2(c3cccc(F)c3)CCCCC2)nc1`, the intrinsic clearance, human liver microsomes worked out at 0.861 L/h/kg and the intrinsic clearance, rat liver microsomes is 18.3 L/h/kg.
Regarding `CCN(Cc1cccs1)C(=O)CN1CCC(n2c(=O)[nH]c3ccccc32)CC1`, the intrinsic clearance, human liver microsomes came to 9.05 L/h/kg and the intrinsic clearance, rat liver microsomes was 168 L/h/kg.
For the compound `CSC1(CNC(=O)N2CCC=C(c3ccccc3)C2)CCOCC1`, the MDR1-MDCK efflux ratio was 1.61; the intrinsic clearance, human liver microsomes was determined as 7.17 L/h/kg; the intrinsic clearance, rat liver microsomes was determined as 165 L/h/kg.
In the case of `COCCN(C)C(=O)c1ccc(-c2cccc(-c3noc(C)n3)c2)cc1`, the MDR1-MDCK efflux ratio was determined as 0.878; the intrinsic clearance, human liver microsomes is 0.685 L/h/kg; the intrinsic clearance, rat liver microsomes was 4.51 L/h/kg.
Consider `COc1ccc(CNc2c(-c3ccc(OC)c(OC)c3)nc3cnccn23)cc1`, for which the MDR1-MDCK efflux ratio is 2.42; the intrinsic clearance, human liver microsomes is 40.5 L/h/kg; the intrinsic clearance, rat liver microsomes stood at 117 L/h/kg; the aqueous solubility was 0.0469 mg/mL (≈ 120 µM).
In turn, `Cc1ccc(C#N)c(NC(=O)CCc2ccccc2)n1` returned an intrinsic clearance, human liver microsomes of 0.668 L/h/kg and an intrinsic clearance, rat liver microsomes of 14.4 L/h/kg.
Take `CC(C)n1c(=O)cc(N[C@@H](C)c2ccccc2)[nH]c1=O`: the MDR1-MDCK efflux ratio came out at 58.2; the intrinsic clearance, human liver microsomes is at most 0.284 L/h/kg; the intrinsic clearance, rat liver microsomes is 1.82 L/h/kg.
In the case of `CCc1nc(CN2CCC(=O)Nc3cc(F)ccc32)n[nH]1`, the MDR1-MDCK efflux ratio amounted to 14.7; the intrinsic clearance, human liver microsomes is at most 0.284 L/h/kg; the intrinsic clearance, rat liver microsomes stood at 0.968 L/h/kg.
For the compound `CC#CC(=O)N1CC[C@@H](n2c(=O)n(-c3ccc(Oc4ccccc4)cc3)c3c(N)ncnc32)C1`, the MDR1-MDCK efflux ratio turned out to be 28.9; the fraction unbound, human plasma was 0.0863; the fraction unbound, rat plasma is 0.0467; the intrinsic clearance, human liver microsomes came out at 1.28 L/h/kg. The intrinsic clearance, rat liver microsomes was 11.2 L/h/kg and the aqueous solubility is 0.0646 mg/mL (≈ 142 µM).
With `CN(Cc1ccc2c(c1)OCO2)Cc1ccccc1C#N`, the MDR1-MDCK efflux ratio is 0.351; the intrinsic clearance, human liver microsomes amounted to 5.27 L/h/kg; the intrinsic clearance, rat liver microsomes turned out to be 246 L/h/kg; the aqueous solubility worked out at 0.0281 mg/mL (≈ 100 µM).
The like results for `Cn1c(=O)n(C)c2cc(CN3CCC(c4ccc(Cc5ccccc5F)cn4)CC3)ccc21` were, in that order, 6.24, 5.09 L/h/kg, 6.49 L/h/kg and 0.0566 mg/mL (≈ 127 µM).
